How the values were obtained:
[1] = molar heat capacity at constant pressure; xn = mol fraction of the nth substance listed; conditions: 101 kPa, Liquid
[2] = molar heat capacity at constant pressure; conditions: 101.33 kPa, Liquid, Cooling curve

C1N2CN3CN1CN(C2)C3 [1,3,5,7-tetraazaadamantane] + CC(=O)O
molar heat capacity at constant pressure [J/K/mol], [1], Vacuum adiabatic calorimetry
Conditions | x1 = 0.022 | x1 = 0.0454 | x1 = 0.0703 | x1 = 0.0967 | x1 = 0.1249 | x1 = 0.1551 | x1 = 0.1873 | x1 = 0.2221
308.15 K | 137.35 | 144.8 | 151.94 | 159.76 | 170.64 | 180.97 | 191.09 | 203.69
313.15 K | 142.53 | 150.32 | 157.16 | 165.58 | 176.29 | 187.61 | 198.06 | 210.89
318.15 K | 147.51 | 155.25 | 162.14 | 170.38 | 181.92 | 193.63 | 203.66 | 216.63
323.15 K | 152.45 | 160.18 | 166.78 | 175.7 | 186.63 | 198.28 | 209.59 | 222.76
328.15 K | 157.24 | 165.08 | 172 | 180.88 | 191.96 | 204.18 | 214.96 | –
333.15 K | 161.64 | 169.05 | 176.96 | 185.28 | 197.37 | 209.36 | 220.93 | 235.17

CC(=O)O [acetic acid]
[2]
Conditions | molar heat capacity at constant pressure [J/K/mol]
313.15 K | 135.5
333.15 K | 137.21

CC(=O)O [acetic acid] + CC(=O)OC(C)=O
[1], Cooling curve, x2 = 0
Conditions | molar heat capacity at constant pressure [J/K/mol]
308.15 K | 134.93
313.15 K | 135.5
318.15 K | 136
323.15 K | 136.35
328.15 K | 136.87
333.15 K | 137.21

CC(=O)OC(C)=O [ethanoic anhydride]
[2]
Conditions | molar heat capacity at constant pressure [J/K/mol]
313.15 K | 200.73
333.15 K | 204.34

CC(=O)OC(C)=O [ethanoic anhydride] + CC(=O)O
molar heat capacity at constant pressure [J/K/mol], [1], Cooling curve
Conditions | x1 = 0.0613 | x1 = 0.1282 | x1 = 0.2013 | x1 = 0.2817 | x1 = 0.3704 | x1 = 0.4687 | x1 = 0.5785 | x1 = 0.7017 | x1 = 0.8411 | x1 = 1
308.15 K | 139.18 | 144.25 | 149.4 | 154.9 | 160.85 | 167.3 | 174.47 | 182.33 | 190.56 | 199.93
313.15 K | 139.82 | 144.91 | 150.09 | 155.59 | 161.58 | 168.08 | 175.28 | 183.12 | 191.49 | 200.73
318.15 K | 140.51 | 145.46 | 150.76 | 156.27 | 162.26 | 168.76 | 176.03 | 183.96 | 192.33 | 201.58
323.15 K | 141.12 | 145.9 | 151.31 | 156.85 | 162.89 | 169.45 | 176.76 | 184.78 | 193.23 | 202.53
328.15 K | 141.75 | 146.52 | 152.03 | 157.59 | 163.68 | 170.33 | 177.68 | 185.79 | 194.35 | 203.67
333.15 K | 142.23 | 147.13 | 152.51 | 158.1 | 164.24 | 170.89 | 178.31 | 186.44 | 195 | 204.34

CCCCCCC [heptane]
[2]
Conditions | molar heat capacity at constant pressure [J/K/mol]
313.15 K | 230.37
333.15 K | 240.03

— the NIST ThermoML archive (doi:10.1021/je9006579)
